As a reminder, the inhibition is the relative decrease from the control value, in per cent.

Among the data in ChEMBL document CHEMBL3301458, “MMV Malaria Box hERG screening” are inhibition values, retold here.

Data set [1] addresses T1, hERG (Kv11.1, KCNH2) (Homo sapiens, UniProt Q12809). Put plainly: in vitro.
Description: MMV: Malaria Box compounds were tested for inhibition of the human ether a go-go related gene (hERG), Kv11.1 channel, using IonWorks 384-well patch clamp electrophysiology at 1.1uM (3 independent assay plates up to 12 cells per concentration).
The target in data set [2] is T1, hERG (Kv11.1, KCNH2). Briefly: in vitro. This is another data set of the same source.
Description: MMV: Malaria Box compounds were tested for inhibition of the human ether a go-go related gene (hERG), Kv11.1 channel, using IonWorks 384-well patch clamp electrophysiology at 11.1uM (3 independent assay plates up to 12 cells per concentration).

The source made the active and inactive calls. The rule behind the calls is not given here.

T1 sequence (Q12809 whole entry): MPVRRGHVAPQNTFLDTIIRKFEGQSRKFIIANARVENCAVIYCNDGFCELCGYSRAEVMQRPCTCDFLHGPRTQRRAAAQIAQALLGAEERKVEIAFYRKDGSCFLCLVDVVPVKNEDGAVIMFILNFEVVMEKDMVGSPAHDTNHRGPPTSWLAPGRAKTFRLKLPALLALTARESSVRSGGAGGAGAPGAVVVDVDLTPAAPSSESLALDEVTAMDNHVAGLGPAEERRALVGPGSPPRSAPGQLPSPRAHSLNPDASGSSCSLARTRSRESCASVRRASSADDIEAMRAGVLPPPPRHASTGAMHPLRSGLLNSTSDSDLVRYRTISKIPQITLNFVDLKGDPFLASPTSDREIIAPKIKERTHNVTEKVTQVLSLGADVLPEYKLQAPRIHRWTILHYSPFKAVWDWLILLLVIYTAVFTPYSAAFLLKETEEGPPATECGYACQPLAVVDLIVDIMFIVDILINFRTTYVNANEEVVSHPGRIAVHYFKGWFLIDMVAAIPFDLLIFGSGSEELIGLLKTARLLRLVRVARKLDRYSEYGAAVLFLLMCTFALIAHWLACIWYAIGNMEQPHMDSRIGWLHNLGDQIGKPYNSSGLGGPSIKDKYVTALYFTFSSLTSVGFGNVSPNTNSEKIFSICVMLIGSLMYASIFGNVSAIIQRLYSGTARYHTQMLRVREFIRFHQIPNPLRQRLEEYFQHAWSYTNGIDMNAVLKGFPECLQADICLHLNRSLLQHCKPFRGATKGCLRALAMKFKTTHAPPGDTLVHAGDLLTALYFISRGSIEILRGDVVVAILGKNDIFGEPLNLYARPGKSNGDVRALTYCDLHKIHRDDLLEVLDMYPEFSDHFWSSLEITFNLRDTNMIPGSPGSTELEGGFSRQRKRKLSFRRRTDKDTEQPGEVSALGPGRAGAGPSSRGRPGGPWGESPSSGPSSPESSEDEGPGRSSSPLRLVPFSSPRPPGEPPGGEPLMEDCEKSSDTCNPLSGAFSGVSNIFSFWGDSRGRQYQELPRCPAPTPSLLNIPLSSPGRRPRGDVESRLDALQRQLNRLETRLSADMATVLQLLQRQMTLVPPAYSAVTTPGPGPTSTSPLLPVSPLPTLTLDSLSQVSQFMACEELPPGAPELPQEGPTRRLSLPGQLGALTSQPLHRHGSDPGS

In the case of `CCN(CC)c1cc(C)c2cc(NC(=O)c3cccc(OC)c3)ccc2n1`, the inhibition at 1.1 µM against hERG (Kv11.1, KCNH2) [1] is 85%. Besides, the inhibition at 11.1 µM at hERG (Kv11.1, KCNH2) [2] was 103%.
For the compound `CN(C)c1ccc(N2C(N)=NC(N)=NC2(C)C)cc1`, the inhibition at 1.1 µM against hERG (Kv11.1, KCNH2) [1] was found to be 10%. Also, the inhibition at 11.1 µM on hERG (Kv11.1, KCNH2) [2] is 11% (inactive).
For `CCCCOC(=O)c1ccc(Nc2cc(C)nc3ccc(OC)cc23)cc1`, the inhibition at 1.1 µM at hERG (Kv11.1, KCNH2) [1] turned out to be 65%. The inhibition at 11.1 µM against hERG (Kv11.1, KCNH2) [2] came out at 91%.
For `Cc1ccc(-c2cc3nc4c(c(O)n3n2)CCCC4)cc1` the same measures were -4% and 11% (inactive).
Consider `CCCCCCn1c(=N)n(CC(O)COc2cccc(C)c2)c2ccccc21` (stereo not given), for which the inhibition at 1.1 µM on hERG (Kv11.1, KCNH2) [1] was 57%. Moreover, the inhibition at 11.1 µM at hERG (Kv11.1, KCNH2) [2] was determined as 111%.
For `Cc1sc2ncnc(Sc3nc4ccccc4[nH]3)c2c1C` the same measures were 8% and 16% (inactive).
For `COc1ccc(CCNC(=O)c2cc(S(=O)(=O)N3CC(C)CC(C)C3)ccc2Sc2ccc(F)cc2)cc1OC` (stereo not given) the same measures were 10% and 5% (inactive).
For `O=c1cc(NC2CCN(CCCc3ccccc3)CC2)c2cc(Cl)ccc2o1` the same measures were 89% and 101%.
Consider `CC(O)(c1ccc(Cl)cc1)C(CN1CCCCC1)c1ccccc1` (stereo not given), for which the inhibition at 1.1 µM against hERG (Kv11.1, KCNH2) [1] was 40%. Moreover, the inhibition at 11.1 µM at hERG (Kv11.1, KCNH2) [2] was 84% (active).
For `CC(NCc1ccccc1)c1cc(Cl)ccc1O` (stereo not given) the same measures were -4% and 35%.
For `FC(F)(F)c1cccc(Nc2nc(-c3ccccc3)nc3ncccc23)c1` the same measures were -8% and 0% (inactive).
For the compound `CCOc1cc(Br)c(C(C)NC(=O)c2cccc(OC)c2)cc1OCC` (stereo not given), the inhibition at 1.1 µM against hERG (Kv11.1, KCNH2) [1] is -12%. For the same compound, the inhibition at 11.1 µM at hERG (Kv11.1, KCNH2) [2] was 2% (inactive).
For `COc1ccc(CCn2c(=N)c(C(=O)NCc3cccnc3)cc3c(=O)n4cccc(C)c4nc32)cc1`, the inhibition at 1.1 µM against hERG (Kv11.1, KCNH2) [1] amounted to 19%. In addition, the inhibition at 11.1 µM on hERG (Kv11.1, KCNH2) [2] was 14% (inactive).
For `Cn1c(C(=O)c2cccc3ccccc23)nc2ccccc21` the same measures were -4% and 1% (inactive).
As to `CCCN(CCC)CCCNC(=O)c1cc2c(-c3ccc(OC)c(OC)c3)nn(C)c2s1`, the inhibition at 1.1 µM on hERG (Kv11.1, KCNH2) [1] amounted to 6%. Besides, the inhibition at 11.1 µM at hERG (Kv11.1, KCNH2) [2] was found to be 47%.
On to `COc1ccc(-c2c(C)nn3c(N)c(C#N)cnc23)cc1OC`, for which, at hERG (Kv11.1, KCNH2) [1], the inhibition at 1.1 µM is 11%. The inhibition at 11.1 µM at hERG (Kv11.1, KCNH2) [2] was 11% (inactive).
For `COc1ccc(Nc2nc(N/N=C/c3ccc(O)cc3)nc(Nc3ccc([N+](=O)[O-])cc3)n2)cc1` the same measures were 17% and 70% (active).
For `O=C(Nc1ccc(CN2CCOCC2)cc1)c1ccc(-c2ccc(Br)cc2)o1` the same measures were 42% and 98% (active).
For `Cc1cccc(Nc2nc(N)c3ccccc3n2)c1` the same measures were 15% and 49%.
Take `COc1cc(-c2nc(-c3ccccc3)c(-c3ccccc3)[nH]2)cc(OC)c1O`: on hERG (Kv11.1, KCNH2) [1], the inhibition at 1.1 µM was found to be 11%. Further, on hERG (Kv11.1, KCNH2) [2], the inhibition at 11.1 µM is 18% (inactive).
For `CCOc1ccc(Nc2c3ccccc3nc3ccccc23)cc1` the same measures were 68% and 112%.
In the case of `Cc1ccc(C)c(Cn2c(N3CCC(C(=O)NCc4cccs4)CC3)nc3ccccc32)c1`, at hERG (Kv11.1, KCNH2) [1], the inhibition at 1.1 µM worked out at 16%. Further, the inhibition at 11.1 µM at hERG (Kv11.1, KCNH2) [2] is 84% (active).
For `CCCCOc1ccc(C(=O)Nc2cc(C)on2)cc1`, the inhibition at 1.1 µM against hERG (Kv11.1, KCNH2) [1] is -2%. Moreover, the inhibition at 11.1 µM at hERG (Kv11.1, KCNH2) [2] is 2% (inactive).
For `Cc1cc(Nc2ccc3ccccc3c2)n2ncnc2n1` the same measures were 9% and 25% (inactive).
For `O=C(NC1CCN(Cc2ccccc2)CC1)c1cc2nc(-c3ccc(Cl)s3)cc(C(F)(F)F)n2n1` the same measures were 21% and 60% (active).
For `COc1ccc(C(=O)NC(c2ccccc2Cl)c2cc(Cl)c3cccnc3c2O)cc1` (stereo not given) the same measures were 9% and 7% (inactive).
In the case of `COc1ccc(-c2nonc2NC(=O)c2cccc(Cl)c2)cc1OC`, at hERG (Kv11.1, KCNH2) [1], the inhibition at 1.1 µM came out at 4%. Further, the inhibition at 11.1 µM on hERG (Kv11.1, KCNH2) [2] is -4% (inactive).
For `Cc1sc(NC(=O)c2ccco2)c(C(c2cccnc2)N2CCC(Cc3ccccc3)CC2)c1C` (stereo not given) the same measures were -12% and 9% (inactive).
As to `c1ccc(CNc2nc(Nc3ccccc3)nc3ccccc23)cc1`, the inhibition at 1.1 µM against hERG (Kv11.1, KCNH2) [1] came out at 17%. Further, the inhibition at 11.1 µM at hERG (Kv11.1, KCNH2) [2] was 69% (active).
For `CCOC(=O)c1cn(CC)c2cc(N(C)CCc3ccc(OC)c(OC)c3)c(F)cc2c1=O` the same measures were 3% and 34%.
For `Cc1ccc2c(C)nc(Nc3nc(C)cc(-c4ccccc4)n3)nc2c1` the same measures were -1% and 4% (inactive).
For `Clc1cc(Br)ccc1-c1ccc(CNCC2CCNCC2)o1` the same measures were 16% and 83% (active).
Regarding `CCOc1cc2c(cc1OCC)C(c1cc(Cl)ccc1O)NCC2` (stereo not given), on hERG (Kv11.1, KCNH2) [1], the inhibition at 1.1 µM came to 1%. For the same compound, the inhibition at 11.1 µM at hERG (Kv11.1, KCNH2) [2] was 20% (inactive).
For `COc1ccc(C(=O)Nc2ccc3nc(N4CCCCC4)cc(C)c3c2)cc1OC` the same measures were 63% and 96%.
For `COc1cc2c3cc1Oc1c(OC)c(OC)cc4c1C(Cc1ccc(O)c(c1)Oc1ccc(cc1)CC3N(C)CC2)N(C)CC4` (stereo not given) the same measures were 14% and 69% (active).
For `CCOc1ccc(CCNC(=O)c2cccs2)cc1OCC` the same measures were 9% and 13% (inactive).
Consider `COc1ccc(NC(=O)C2c3ccccc3C(=O)N(CC(C)C)C2c2cccs2)cc1` (stereo not given), for which the inhibition at 1.1 µM against hERG (Kv11.1, KCNH2) [1] was 7%. Also, on hERG (Kv11.1, KCNH2) [2], the inhibition at 11.1 µM was 18% (inactive).
`Cc1c(C)n(Cc2ccc(F)cc2)c2ccc(C(=O)NCc3ccco3)cc12`: the inhibition at 1.1 µM against hERG (Kv11.1, KCNH2) [1] was -2%. Besides, the inhibition at 11.1 µM at hERG (Kv11.1, KCNH2) [2] is 5% (inactive).
For `Cc1ccc(Nc2nc(N)c3ccccc3n2)cc1Cl` the same measures were 5% and 85% (active).
For `CC1=C(CC(=O)c2cccc([N+](=O)[O-])c2)C(=O)c2ccccc2C1=O` the same measures were 9% and 17% (inactive).
For `O=C(Nc1ccc(Br)cc1)Nc1cccc(Cl)c1` the same measures were -5% and 11% (inactive).
For `CC(C)c1ccc(CNCC(O)c2ccccc2)cc1` (stereo not given), at hERG (Kv11.1, KCNH2) [1], the inhibition at 1.1 µM came to 15%. For the same compound, the inhibition at 11.1 µM at hERG (Kv11.1, KCNH2) [2] is 59% (active).
For `CCCc1c(C)nc2ccc(Br)cc2c1O` the same measures were 1% and 2% (inactive).
For `O=C1c2ccccc2C2=Nc3ccccc3SC(c3cccc(F)c3)C12` (stereo not given) the same measures were -4% and 4% (inactive).
For `FC(F)(F)c1cccc(Nc2nc3ccccc3nc2Nc2cccc(C(F)(F)F)c2)c1` the same measures were -4% and 8% (inactive).
